Test results: patent US7989450B2, “Functionalized diarylisoxazoles inhibitors of ciclooxygenase” (Universita' Degli Studi Di Bari, priority 2008, dated 2011)

Columns and labels:
[1] = biological target: T1, platelet COX-1 (Homo sapiens, UniProt P23219); test: Biosynthesis of TXB2 in human whole blood left to coagulate, index of platelet COX-1 activity; assay type: cell-based; settings: human whole blood method, coagulation 1 hour at 37° C., TXB2 by RIA
T1 construct: 1 ml aliquots of whole blood were immediately transferred into glass test tubes and left to coagulate at 37° C; endogenous in cells; host or cells: platelets in whole blood of healthy human volunteers
Experimental: (§1) Fourteen healthy volunteers (25-34 years) were enrolled to take part in the study and were studied on various occasions. Peripheral venous blood samples were taken from donors who had not taken FANS in the 2 weeks prior to the study.
1 ml aliquots of whole blood were immediately transferred into glass test tubes and left to coagulate at 37° C. for 60 minutes.

[2] = biological target: T2, monocyte COX-2 induced by LPS (Homo sapiens, UniProt P35354); test: Biosynthesis of PGE2 in LPS-stimulated human whole blood, index of monocyte COX-2 activity; assay type: cell-based; settings: human whole blood method, 24 hours at 37° C.; for IC50: LPS 10 microg/ml, PGE2 by RIA
T2 construct: incubated with heparinised whole blood in the presence of LPS (10 microg/ml) for 24 hours at 37° C; endogenous in cells; host or cells: LPS-stimulated monocytes in heparinised whole blood of healthy human volunteers
T2 sequence (P35354 18-604): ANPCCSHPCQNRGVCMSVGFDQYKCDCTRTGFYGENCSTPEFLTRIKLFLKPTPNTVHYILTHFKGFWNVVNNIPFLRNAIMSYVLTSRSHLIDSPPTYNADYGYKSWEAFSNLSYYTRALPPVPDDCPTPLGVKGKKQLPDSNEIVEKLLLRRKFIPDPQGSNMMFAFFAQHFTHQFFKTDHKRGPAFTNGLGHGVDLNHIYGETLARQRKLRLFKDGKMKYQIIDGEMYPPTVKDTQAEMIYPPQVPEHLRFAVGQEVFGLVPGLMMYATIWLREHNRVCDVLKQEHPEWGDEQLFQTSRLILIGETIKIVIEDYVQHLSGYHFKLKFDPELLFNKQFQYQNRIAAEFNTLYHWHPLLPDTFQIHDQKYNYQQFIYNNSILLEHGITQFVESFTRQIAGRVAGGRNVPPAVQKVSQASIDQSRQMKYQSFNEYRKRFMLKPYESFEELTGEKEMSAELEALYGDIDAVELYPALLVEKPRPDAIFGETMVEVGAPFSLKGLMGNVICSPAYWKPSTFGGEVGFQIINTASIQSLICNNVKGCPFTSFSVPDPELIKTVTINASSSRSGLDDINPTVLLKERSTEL
Experimental: as §1
Biosynthesis of PGE2 in the Whole Blood as an Index of Monocyte COX-2 Activity Induced by LPS.
Aliquots of 1 ml of whole blood taken from the cubital vein with a syringe containing heparin (20 IU/ml blood) were incubated with lipopolysaccharide (LPS, from Escherichia coli 026:B6; Sigma Chemical Company, St. Louis, Mo.) (10 μg/ml) for 24 hours at 37° C. The plasma was separated by centrifugation and kept at −70° C. The PGE2 was measured with a specific radioimmunological assay (RIA) as an index of monocyte COX-2 activity induced by LPS.

[3] = secondary prevention, various groups of patients; cited from earlier work

T1 sequence (P23219 24-599): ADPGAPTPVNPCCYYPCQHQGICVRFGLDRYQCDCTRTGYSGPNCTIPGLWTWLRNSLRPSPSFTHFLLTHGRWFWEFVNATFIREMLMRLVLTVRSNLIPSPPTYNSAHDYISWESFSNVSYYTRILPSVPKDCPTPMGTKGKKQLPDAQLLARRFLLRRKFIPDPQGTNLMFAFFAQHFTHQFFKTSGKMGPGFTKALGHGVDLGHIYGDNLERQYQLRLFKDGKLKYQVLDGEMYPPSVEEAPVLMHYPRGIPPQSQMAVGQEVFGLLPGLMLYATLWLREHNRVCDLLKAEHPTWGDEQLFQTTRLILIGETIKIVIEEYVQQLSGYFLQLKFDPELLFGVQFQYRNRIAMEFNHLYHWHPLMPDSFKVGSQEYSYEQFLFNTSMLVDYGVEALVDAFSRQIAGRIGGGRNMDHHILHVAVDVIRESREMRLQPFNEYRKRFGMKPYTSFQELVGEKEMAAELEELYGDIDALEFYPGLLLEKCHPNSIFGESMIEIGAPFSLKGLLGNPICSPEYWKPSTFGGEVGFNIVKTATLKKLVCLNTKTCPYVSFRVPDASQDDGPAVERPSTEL

| melting point | IC50 [1] [nM] | Compound | further results |
| --- | --- | --- | --- |
| 55 to 57 °C | 810 | FC(F)(F)c1onc(-c2ccc(Cl)o2)c1-c1ccccc1 [Example 5, 3-(5-Chlorofuran-2-yl)-4-phenyl-5-(trifluoromethyl)isoxazole] | IC50 [2]: > 100 µM |
| 168 to 170 °C |  | O=C(O)c1onc(-c2ccc(Cl)o2)c1-c1ccccc1 [Example 15, [3-(5chlorofuran-2-yl)-4-phenylisoxazol-5-yl]carboxylic acid] |  |
| 130 to 131 °C |  | COC(=O)c1onc(-c2ccc(Cl)o2)c1-c1ccccc1 [Example 16, Methyl [3-(5-chlorofuran-2-yl)-4-phenylisoxazol-5-yl]carboxylate] |  |
| 102 to 103 °C | 4200 | OCc1onc(-c2ccc(Cl)o2)c1-c1ccccc1 [Example 17, 3-(5-Chlorofuran-2-yl)-4-phenyl-5-hydroxymethylisoxazole] | inhibition at 100 µM ([2]; 100 μM, LPS, read-out: COX-2 inhibition (I) at 100 μM): 44% |
| 82 to 83.7 °C |  | O=C(OCCCN1CCOCC1)c1onc(-c2ccc(Cl)o2)c1-c1ccccc1 [Example 19, 3-(Morpholin-1-yl)propyl[3-(5-chlorofuran-2-yl)-4-phenylisoxazol-5-yl]carboxilate] |  |
| 100 to 101 °C |  | O=C(OCCCBr)c1onc(-c2ccc(Cl)o2)c1-c1ccccc1 [Example 20, 3-Bromopropyl[3-(5-chlorofuran-2-yl)-4-phenylisoxazol-5-yl]carboxylate] |  |
| 79 to 79.8 °C |  | O=C(OCCCO[N+](=O)[O-])c1onc(-c2ccc(Cl)o2)c1-c1ccccc1 [Example 21, 3-(Nitroxy)propyl[3-(5-chlorofuran-2-yl)-4-phenylisoxazol-5-yl]carboxylate] |  |
| 113 to 117 °C (dec.) |  | COC(=O)c1c(-c2ccc(Cl)o2)noc1-c1ccccc1 [Example 22, Methyl3[-(5-chlorofuran-2-yl)-5-phenylisoxazol-4-yl]carboxylate] |  |

Second part, the compound before the results:

| Compound | melting point | IC50 [1] [nM] | further results |
| --- | --- | --- | --- |
| CC1(O)ON=C(c2ccc(Cl)o2)C1c1ccc(F)cc1 (stereo not drawn) [Example 2, 3-(5-Chlorofuran-2-yl)-4-(4-fluorophenyl)-5-hydroxy-5-methyl-2-isoxazoline] | 101 to 102 °C |  |  |
| Cc1onc(-c2ccc(Cl)o2)c1-c1ccc(F)cc1 [Example 6, 3-(5-Chlorofuran-2-yl)-4-(4-fluorophenyl)-5-methylisoxazole] | 103.7 to 105.2 °C | 1900 | IC50 [2]: > 100 µM |
| Cc1onc(-c2ccc(Cl)o2)c1-c1ccccc1F [Example 7, 3-(5-Chlorofuran-2-yl)-4-(2-fluorophenyl)-5-methylisoxazole] |  | 1900 | IC50 [2]: > 100 µM |
| Cc1onc(-c2ccco2)c1-c1ccccc1 [Example 12, 3-(Furan-2-yl)-4-phenyl-5-methylisoxazole] | 93 to 96 °C |  |  |
| Cc1onc(-c2ccc(Br)o2)c1-c1ccccc1 [Example 14, 3-(5-Bromofuran-2-yl)-4-phenyl-5-methylisoxazole] | 93 to 96 °C |  |  |
| CC(=O)OCc1onc(-c2ccc(Cl)o2)c1-c1ccccc1 [Example 18, 5-Acetoxymethyl-3-(5-chlorofuran-2-yl)-4-phenylisoxazole] |  | 5200 | IC50 [2]: > 100 µM |
| CC(=O)Oc1ccccc1C(=O)O [aspirin, acetylsalicylic acid] |  |  | prevention of non fatal vascular events [3]: 25-30%; prevention of vascular death [3]: 15-20% |
